Measured values from patent publication US5070210A, “Novel ketenimines as intermediates for insecticides” (ICI Americas Inc., priority 1990, dated 1991).

Legend:
Assay type in all cases: in vivo
[1] = system: Cabbage Looper [Trichoplusia ni (Hubner)]; assay: Cabbage looper insecticidal test; details: second-instar larvae, percent in solution; 3-5 days
How it was run: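 Squash cotyledons dipped 2-3 s in compound in 50-50 acetone-water, dried, then infested with 5 second-instar larvae and held at high humidity. Mortality scored after 3-5 days at concentrations from 0.1% downward. LC50 from dosage-mortality curves, expressed as percent compound in solution.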

[2] = system: Maize weevil [Sitophilus Zeamais (Motschulsky)]; assay: Maize weevil insecticidal test; details: adult weevils, percent in solution; 48 hours
How it was run: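 LC50, in percent of compound in solution, was derived from dosage-mortality curves after 48 h at about 25 °C. Ten adult weevils per container fed on four corn seeds briefly immersed in acetone:water (50:50) solutions of up to 0.01% and dried.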

[3] = system: Tobacco Budworm [Heliothis virescens (Fabricius)] eggs; assay: Tobacco budworm egg test; details: 2-day old eggs, percent in solution
How it was run: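 Paper-towel patches of 2-day-old eggs dipped in acetone solutions of compound (0.1% downward), held on larval rearing medium at 78° F. Mortality scored once all control eggs had hatched and larvae were feeding; LC50 from dosage-mortality curves, expressed as percent compound in solution.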

[4] = system: Aster Leafhopper [Macrosteles fascifrens (Stal)]; assay: Aster leafhopper insecticidal test; details: adults/nymphs, percent in solution; 48 hours
How it was run: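 LC50 values, given as percent of test compound in the dip solution, were derived from dosage-mortality curves over concentrations from 0.05% downward. Mortality was counted 48 hours after ten leafhopper adults/nymphs were enclosed on treated seedlings. The seedlings were oats, about 10 cm tall, briefly dipped in 50-50 acetone-water.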

[5] = system: Housefly [Musca domestica]; assay: Housefly insecticidal test; details: μg per 25 female flies; mortality after 48 hours
How it was run: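 LC50, as μg compound per 25 female flies, comes from dosage-mortality curves with doses from 100 μg downward. Residues were made by evaporating acetone plus 0.01% peanut oil in dishes, onto which 1-2-day-old females were caged; deaths were counted after 48 hours.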

Row | Compound | LC50, CL [1] | LC50, MW [2] | LC50, TBW, E (TBW-E) [3] | LC50, LH [4] | LC50, HF [5]
1 | CSc1ccc(N=C(OCc2ccc(F)c(Oc3ccccc3)c2)C(C)C)cc1 [Compound 353] | > 0.1% | > 0.01% | > 0.1% | > 0.05% | < 100 µg
2 | Cc1ccc(N=C(OCc2ccc(F)c(Oc3ccccc3)c2)C(C)C)cc1F [Compound 354] | > 0.1% | 0.0068% | 0.018% | < 0.05% | < 100 µg
3 | Cc1ccc(N=C(OCc2ccc(F)c(Oc3ccc(F)cc3)c2)C(C)C)cc1F [Compound 355] | > 0.1% | > 0.01% | > 0.1% | < 0.05% | < 100 µg
4 | Cc1ccc(N=C(OCc2ccc(F)c(Oc3ccccc3)c2)C(C)C)cc1Cl [Compound 356] | > 0.1% | > 0.01% | 0.025% | < 0.05% | < 100 µg
5 | Cc1ccc(N=C(OCc2ccc(F)c(Oc3ccc(F)cc3)c2)C(C)C)cc1Cl [Compound 357] | > 0.1% | 0.01% | > 0.1% | < 0.05% | < 100 µg
6 | Cc1cc(N=C(OCc2ccc(F)c(Oc3ccccc3)c2)C(C)C)ccc1Br [Compound 358] | > 0.1% | > 0.01% | > 0.1% | < 0.05% | < 100 µg
7 | Cc1cc(N=C(OCc2ccc(F)c(Oc3ccc(F)cc3)c2)C(C)C)ccc1Br [Compound 359] | > 0.1% | > 0.01% | 0.023% | 0.05% | < 100 µg
8 | CCc1ccc(N=C(OCc2ccc(F)c(Oc3ccccc3)c2)C(C)C)cc1 [Compound 360] | 0.006% | > 0.01% | > 0.1% | < 0.05% | < 100 µg
9 | CCc1ccc(N=C(OCc2ccc(F)c(Oc3ccc(F)cc3)c2)C(C)C)cc1 [Compound 361] | 0.001% | > 0.01% | 0.04% | < 0.05% | < 100 µg
10 | CSc1cccc(N=C(OCc2ccc(F)c(Oc3ccccc3)c2)C(C)C)c1 [Compound 362] | > 0.1% | > 0.01% | > 0.1% | > 0.05% | < 100 µg
11 | COc1ccc(N=C(OCc2ccc(F)c(Oc3ccc(F)cc3)c2)C(C)C)cc1OC [Compound 363] | > 0.1% | > 0.01% | > 0.1% | > 0.05% | < 100 µg
12 | CC(C)C(=Nc1ccc(Br)c(C(F)(F)F)c1)OCc1ccc(F)c(Oc2ccc(F)cc2)c1 [Compound 364] | 0.00045% | > 0.01% | 0.025% | < 0.05% | < 100 µg
13 | CC(C)C(=Nc1ccc(C(F)(F)F)cc1)OCc1cccc(Oc2ccc(Cl)cc2)c1 [Compound 365] | 0.00025% | > 0.01% | 0.038% | < 0.05% | > 100 µg
14 | CC(C)C(=Nc1ccc2c(c1)OCO2)OCc1ccc(F)c(Oc2ccc(Cl)cc2)c1 [Compound 366] | 0.0007% | > 0.01% | 0.012% | 0.05% | < 100 µg
15 | CC(C)C(=Nc1ccc2c(c1)OCO2)OCc1cccc(Oc2ccc(C(C)(C)C)cc2)c1 [Compound 367] | < 0.1% | > 0.01% | > 0.1% | > 0.05% | > 100 µg
16 | CC(C)C(=Nc1ccc(F)cc1)OCCc1cccc(Oc2ccccc2)c1 [Compound 456] | 0.017% | > 0.01% | > 0.05% | > 0.05% | > 100 µg
17 | CC(C)C(=Nc1ccc2c(c1)OCO2)OCc1cccc(Oc2ccc(Cl)cc2)n1 [Compound 466] | 0.0008% | 0.01% | > 0.1% | > 0.05% | 13 µg

Row | Compound | LC50, CL [1] | LC50, MW [2] | LC50, TBW, E (TBW-E) [3] | LC50, LH [4] | LC50, HF [5]
18 | CC(C)C(=Nc1ccc(F)c(Cl)c1)OCc1ccc(OCc2ccccc2)cc1 [Compound 475] | 0.008% | > 0.01% | > 0.1% | > 0.05% | > 100 µg
19 | C=CCOc1cccc(COC(=Nc2ccc(F)c(Cl)c2)C(C)C)c1 [Compound 479] | 0.013% | > 0.01% | > 0.1% | > 0.05% | 66 µg
20 | CC(C)C(=Nc1ccc(F)c(Cl)c1)OCc1cccc(OCc2ccc(F)cc2)c1 [Compound 490] | 0.0045% | > 0.01% | > 0.1% | > 0.05% | > 100 µg
21 | CC(C)C(=Nc1ccc(F)c(Cl)c1)OCc1cccc(Oc2ccc(Br)cc2)n1 [Compound 492] | 0.00028% | > 0.01% | 0.015% | > 0.05% | 15 µg
22 | CC(C)C(=Nc1ccc(F)c(Cl)c1)OCc1cccc(Nc2ccc(F)cc2)c1 [Compound 512] | 0.003% | > 0.01% | > 0.1% | > 0.05% | 35 µg
23 | CC(C)C(=Nc1cccc(C(F)(F)F)c1)OCc1cccc(Nc2ccc(F)cc2)c1 [Compound 513] | 0.007% | > 0.01% | > 0.1% | > 0.05% | 81 µg
24 | CC(C)C(=Nc1ccc(Cl)c(Cl)c1)OCc1cccc(Nc2ccc(F)cc2)c1 [Compound 514] | 0.008% | > 0.01% | > 0.1% | > 0.05% | > 100 µg
25 | CC(C)C(=Nc1ccc2c(c1)OCO2)OCc1cc(Oc2ccc(F)cc2)ccn1 [Compound 515] | 0.0015% | > 0.01% | > 0.1% | > 0.05% | 28 µg
26 | CC(C)C(=Nc1ccc(F)c(Cl)c1)OCc1cc(Oc2ccc(Cl)cc2)ccn1 [Compound 516] | 0.008% | > 0.01% | > 0.1% | > 0.05% | > 100 µg
27 | CC(C)C(=Nc1cccc(C(F)(F)F)c1)OCc1ccnc(Oc2ccc(Cl)cc2)c1 [Compound 517] | 0.0008% | > 0.01% | 0.04% | > 0.05% | 80 µg
28 | CC(C)C(=Nc1cccc(C(F)(F)F)c1)OCc1cccc(Oc2ccc(Cl)cn2)c1 [Compound 518] | 0.00075% | > 0.01% | > 0.1% | > 0.05% | > 100 µg
29 | C#CC(OC(=Nc1cccc(C(F)(F)F)c1)C(C)C)c1cccc(Oc2ccccc2)c1 (centres unmarked) [Compound 519] | 0.0037% | > 0.01% | > 0.1% | > 0.05% | 60 µg
30 | CCC(=Nc1ccc(F)c(F)c1)OCc1coc(Cc2ccccc2)c1 [Compound 524] | > 0.1% | > 0.01% | > 0.1% | > 0.05% | 5.2 µg
31 | CC(C)(C)C(=Nc1ccc(F)c(F)c1)OCc1coc(Cc2ccccc2)c1 [Compound 525] | < 0.1% | > 0.01% | > 0.1% | > 0.05% | > 100 µg
32 | CC(=Nc1ccc(F)c(F)c1)OCc1coc(Cc2ccccc2)c1 [Compound 526] | > 0.1% | > 0.01% | > 0.1% | > 0.05% | 8.3 µg
33 | CC(C)C(=Nc1ccc(F)c(Cl)c1)OCc1cccc(Oc2ccc(Cl)cn2)c1 [Compound 527] | 0.00065% | > 0.01% | 0.035% | > 0.05% | 47 µg
34 | CC(C)C(=Nc1ccc2c(c1)OCO2)OCc1cccc(Oc2ccc(Cl)cn2)c1 [Compound 532] | < 0.1% | > 0.01% | > 0.1% | > 0.05% | > 100 µg
